Experimental data as given in US7098232B1, “Treatment and prevention of gastrointestinal disease using antagonists of partial agonists of 5HT1a receptors” (Athpharma Limited, priority 1999, dated 2006).

How the values were obtained:
5HT1a receptor = biological target: T1, 5HT1a receptor (Homo sapiens, UniProt P08908); test: Buspirone challenge, prolactin release; assay type: in vivo; conditions: buspirone 30 mg orally; for Prolactin AUC (mean±SD): blood 0-180 min
T1 construct: Buspirone (30mg) or, matching placebo was administered orally; from tissue; host or cells: living human subjects (central receptors)
T1 sequence (P08908 1-422): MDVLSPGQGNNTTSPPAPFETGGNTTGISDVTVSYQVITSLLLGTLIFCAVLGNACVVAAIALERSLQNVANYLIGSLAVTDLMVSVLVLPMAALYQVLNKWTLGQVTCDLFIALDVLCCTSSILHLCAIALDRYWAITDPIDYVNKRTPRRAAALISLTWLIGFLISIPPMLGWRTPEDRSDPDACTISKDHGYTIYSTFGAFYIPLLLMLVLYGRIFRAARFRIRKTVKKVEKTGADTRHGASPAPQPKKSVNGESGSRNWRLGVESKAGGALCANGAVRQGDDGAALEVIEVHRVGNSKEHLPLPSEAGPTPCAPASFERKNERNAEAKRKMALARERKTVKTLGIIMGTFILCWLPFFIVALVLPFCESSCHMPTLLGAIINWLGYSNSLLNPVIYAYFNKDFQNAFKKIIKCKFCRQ
From the text: Studies indicate that a central 5HT1a receptor hypersensitivity may be involved in the pathophysiology of NUD (13,14). The release of prolactin from the anterior pituitary is under dopamine inhibition and under 5HT stimulation, probably at the level of the hypothalamus (15).
A total of 109 subjects, 50 NUD patients (39 female/11 male) and 59 healthy comparison subjects ([…]) gave fully informed consent to take part in the study, which had Ethics Committee approval. […] Buspirone (30mg) or, matching placebo was administered orally at 0900 h (Time 0). Blood was taken at 0, 30, 60, 90, 120 and 180 min.

[1] = test system: patients suffering from non-ulcerative dyspepsia; test: Clinical study of pindolol in non-ulcerative dyspepsia (GSRS scores); assay type: in vivo, humans; conditions: 2.5 mg three times daily
Procedure: The invention is intended for the treatment of mammals, including humans.
Eleven patients suffering from non-ulcerative dyspepsia were recruited to a clinical study and gave informed consent. All were treated with pindolol 2.5 mg three times daily. […] A further patient improved in the second week. Their responses were quantified using a standard rating scale (GSRS scores).

gastric emptying = conditions: intracerebroventricular injection, animal studies; cited from earlier work

O=C1CC2(CCCC2)CC(=O)N1CCCCN1CCN(c2ncccn2)CC1 [Buspirone]
Prolactin AUC (mean±SD) (5HT1a receptor; NUD patients): 46±35 | Prolactin levels after challenge (5HT1a receptor; all subjects): rose in all subjects | Prolactin AUC (mean±SD) (5HT1a receptor; healthy subjects): 24±35

CC(C)NCC(O)COc1cccc2[nH]ccc12 (racemic) [pindolol]
Mean GSRS Score ([1]; Week 0 (baseline), average of 11 patients): 9 | Mean GSRS Score ([1]; Week 1, average of 11 patients): 4.2 | Mean GSRS Score ([1]; Week 2, average of 11 patients): 3.5 | Mean GSRS Score ([1]; Week 3, average of 11 patients): 2.9 | Reduction in average symptom severity ([1]; in three weeks): approximately 68% | Patients with significant improvement in symptoms ([1]; within 1 week of commencing treatment): Seven of the 11

CCNC(C)Cc1cccc(C(F)(F)F)c1 (stereo not shown) [fenfluramine]
Effect on gastric emptying (gastric emptying): inhibits gastric emptying
